Test systems include CAKI-1 renal; COLO 205 colon; HL-60(TB) leukemia; HS 578T breast; IGROV1 ovarian; K-562 leukemia; PC-3 prostate; SN12C renal; SW-620 colon; T-47D breast.
Test in all cases: inhibition of tumour cell growth, NCI panel, 48 h

The results in this text go back to PubChem BioAssay (NCI).

Structures are written as SMILES.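 96-well plates; 48 h exposure; 5 concentrations. Endpoints by linear interpolation between flanking doses. Not reached: highest tested concentration assigned. Here, GI50 denotes the concentration required for 50% inhibition of growth. TGI: total growth inhibition.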

For the compound `O=C1/C(=N/N=C(c2ccccc2)c2ccccc2)c2ccccc2-c2ccccc21`, the TGI in the assay on CAKI-1 renal, in the assay with COLO 205 colon, in the assay with HL-60(TB) leukemia, with HS 578T breast, with IGROV1 ovarian and in the assay with K-562 leukemia was more than 100 µM throughout. Moreover, the TGI with PC-3 prostate, in the assay with SN12C renal, in the assay with SW-620 colon and in the assay on T-47D breast was more than 100 µM in each case.

With `Cc1c(C)n(CC(O)CNC2CCCCC2C)c2ccccc12` (centres undefined), the GI50 was 12.4 µM in the assay on CAKI-1 renal; 2.21 µM in the assay with COLO 205 colon; 19.2 µM with HL-60(TB) leukemia; 16.3 µM with HS 578T breast; 16 µM in the assay on IGROV1 ovarian; 3.93 µM in the assay with K-562 leukemia. The GI50 is 13.4 µM in the assay with PC-3 prostate, 16 µM with SN12C renal, 17.9 µM with SW-620 colon and 12.8 µM with T-47D breast. Moreover, the TGI in the assay with CAKI-1 renal was determined as 24.9 µM; in the assay on COLO 205 colon, 4.82 µM; in the assay with HL-60(TB) leukemia it was 42.7 µM; in the assay with HS 578T breast, 43 µM; in the assay on IGROV1 ovarian it was 31.9 µM; in the assay on K-562 leukemia, 20.1 µM. The TGI in the assay on PC-3 prostate stood at 26.2 µM; in the assay with SN12C renal, 30.5 µM; with SW-620 colon, 35 µM; in the assay with T-47D breast, 29.8 µM.

Regarding `S=P(C1CCCCC1)(C1CCCCC1)C(c1cccnc1)N1CCCC1` (centres undefined), the TGI in the assay with CAKI-1 renal was determined as 31.9 µM; in the assay with COLO 205 colon, 37.3 µM; in the assay with HL-60(TB) leukemia, 37 µM; in the assay on HS 578T breast it was 84.3 µM; in the assay on IGROV1 ovarian, 33.8 µM; with K-562 leukemia, 39.2 µM. Also, the TGI in the assay on PC-3 prostate is 36.9 µM; in the assay on SN12C renal, 33.1 µM; in the assay on SW-620 colon, more than 100 µM; in the assay on T-47D breast, more than 100 µM.

As for `C=C(C)[C@@H]1CC[C@]2(C(=O)N3CCN(C)CC3)CC[C@]3(C)[C@H](CC[C@@H]4[C@@]5(C)C/C(=C/c6ccncc6)[C@H](O)C(C)(C)[C@@H]5CC[C@]43C)[C@@H]12`, the GI50 is 5.82 µM in the assay with CAKI-1 renal; 3.16 µM in the assay with COLO 205 colon; 2.29 µM with HL-60(TB) leukemia; 11.6 µM in the assay with HS 578T breast; 6.62 µM with IGROV1 ovarian; 2.79 µM with K-562 leukemia. The GI50 is 2.75 µM with PC-3 prostate, 6.22 µM in the assay with SN12C renal, 3.75 µM in the assay on SW-620 colon and 3.02 µM in the assay on T-47D breast. The TGI was 25.5 µM in the assay on CAKI-1 renal; 23 µM in the assay on COLO 205 colon; 5.58 µM in the assay with HL-60(TB) leukemia; more than 100 µM with HS 578T breast; 37.7 µM in the assay with IGROV1 ovarian; 16.7 µM in the assay on PC-3 prostate. The TGI in the assay with SN12C renal is 22.3 µM; in the assay with SW-620 colon it was 17.7 µM; in the assay with T-47D breast it was 22.4 µM.

For the compound `COc1ccc2c3c(ccc2c1)NC(C(=O)O)CC3` (centres undefined), the TGI with CAKI-1 renal is more than 100 µM; in the assay on COLO 205 colon it was more than 100 µM; in the assay with HL-60(TB) leukemia, 82.9 µM; with HS 578T breast it was more than 100 µM; with IGROV1 ovarian it was more than 100 µM; in the assay with K-562 leukemia, more than 100 µM. For the same compound, the TGI is more than 100 µM in the assay with PC-3 prostate, more than 100 µM in the assay with SN12C renal, more than 100 µM in the assay on SW-620 colon and 79.1 µM in the assay with T-47D breast.
